Values joined by “and” are separate entries in the source; they are usually repeats but may differ in a detail not shown here. Equal values may be shown once. Read-outs that look alike come from different tables or passages of the source.
Tests used:
[1] = Pharmacokinetics in ICR mice after intravenous and intragastric administration; assay type: in vivo; conditions: for F*: PO 5 mg/kg vs IV 2 mg/kg, mean; for MRT last: read-out: MRT(0-t); for MRT inf: read-out: MRT(0-∞); for Vd: read-out: Vz
Procedure, shortened: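 Male ICR mice (6-9 weeks, 20-30 g, n=3 per route) were fasted overnight and dosed at 2 mg/kg i.v. or 5 mg/kg intragastrically in 5% DMSO/40% PEG400/55% (10% HP-β-CD in saline). Plasma levels were measured by LC-MS/MS after protein precipitation (LLOQ 1 ng/mL), and non-compartmental PK parameters were calculated.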

[2] = tested on: human osteosarcoma cell line SJSA-1; test: Inhibition of proliferation of human osteosarcoma cell line SJSA-1 (DAPI staining, In Cell Analyzer); conditions: Homo sapiens, SJSA-1, 72 h, read-out: IC50 (nM), inhibitory activity on proliferation of human osteosarcoma cell line SJSA-1, SJSA-1, incubated 72 h
MDM2 = target: T1, MDM2 (Homo sapiens, UniProt Q00987); test: Inhibition test of MDM2-P53 (GST-MDM2, Biotin-P53, Anti-GST-Tb, SA-XL665); assay type: binding
T1 construct: made in house
Procedure, shortened: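 Binding was measured by TR-FRET with GST-MDM2 at 4 nM final in PBS with 0.1% BSA, 5 mM DTT and 1 mM AEBSF. Compounds were tested as twelve-point 5-fold dilutions and incubated with the detection mix for 90 min at 25 °C with shaking before plate-reader reading and curve fitting.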

[3] = ICR mice, IV 2 mg/kg, individual animals 301-303, 2 mg/kg
[4] = ICR mice, PO 5 mg/kg, individual animals 401-403, 5 mg/kg
[5] = male, ICR, mouse, plasma, iv, 2 mg/kg, ICR mice, IV 2 mg/kg, individual animals 301-303
[6] = male, ICR, mouse, plasma, iv, 2 mg/kg, ICR mice, IV 2 mg/kg, individual animals 301-303, read-out: AUC(0-t)
[7] = male, ICR, mouse, plasma, iv, 2 mg/kg, ICR mice, IV 2 mg/kg, individual animals 301-303, read-out: Cmax
[8] = male, ICR, mouse, plasma, iv, 2 mg/kg, ICR mice, IV 2 mg/kg, individual animals 301-303, read-out: Tmax
[9] = male, ICR, mouse, plasma, iv, 2 mg/kg, ICR mice, IV 2 mg/kg, individual animals 301-303, read-out: t1/2 (converted)
[10] = male, ICR, mouse, plasma, iv, 2 mg/kg, ICR mice, IV 2 mg/kg, mean of 3 animals
[11] = male, ICR, mouse, plasma, iv, 2 mg/kg, ICR mice, IV 2 mg/kg, mean of 3 animals, read-out: AUC(0-t)
[12] = male, ICR, mouse, plasma, iv, 2 mg/kg, ICR mice, IV 2 mg/kg, mean of 3 animals, read-out: Cmax
[13] = male, ICR, mouse, plasma, iv, 2 mg/kg, ICR mice, IV 2 mg/kg, mean of 3 animals, read-out: Tmax
[14] = male, ICR, mouse, plasma, iv, 2 mg/kg, ICR mice, IV 2 mg/kg, mean of 3 animals, read-out: t1/2 (converted)
[15] = male, ICR, mouse, plasma, po, 5 mg/kg, ICR mice, PO 5 mg/kg, individual animals 401-403
[16] = male, ICR, mouse, plasma, po, 5 mg/kg, ICR mice, PO 5 mg/kg, individual animals 401-403, read-out: AUC(0-t)
[17] = male, ICR, mouse, plasma, po, 5 mg/kg, ICR mice, PO 5 mg/kg, individual animals 401-403, read-out: Cmax
[18] = male, ICR, mouse, plasma, po, 5 mg/kg, ICR mice, PO 5 mg/kg, individual animals 401-403, read-out: t1/2 (converted)
[19] = male, ICR, mouse, plasma, po, 5 mg/kg, ICR mice, PO 5 mg/kg, mean of 3 animals
[20] = male, ICR, mouse, plasma, po, 5 mg/kg, ICR mice, PO 5 mg/kg, mean of 3 animals, read-out: AUC(0-t)
[21] = male, ICR, mouse, plasma, po, 5 mg/kg, ICR mice, PO 5 mg/kg, mean of 3 animals, read-out: Cmax
[22] = male, ICR, mouse, plasma, po, 5 mg/kg, ICR mice, PO 5 mg/kg, mean of 3 animals, read-out: Tmax
[23] = male, ICR, mouse, plasma, po, 5 mg/kg, ICR mice, PO 5 mg/kg, mean of 3 animals, read-out: t1/2 (converted)
[24] = male, ICR, mouse, plasma, po, 5 mg/kg, oral intragastric administration 5 mg/kg, read-out: AUC0-t
[25] = male, ICR, mouse, plasma, po, 5 mg/kg, oral intragastric administration 5 mg/kg, read-out: half-life (converted)

T1 sequence (Q00987 whole entry): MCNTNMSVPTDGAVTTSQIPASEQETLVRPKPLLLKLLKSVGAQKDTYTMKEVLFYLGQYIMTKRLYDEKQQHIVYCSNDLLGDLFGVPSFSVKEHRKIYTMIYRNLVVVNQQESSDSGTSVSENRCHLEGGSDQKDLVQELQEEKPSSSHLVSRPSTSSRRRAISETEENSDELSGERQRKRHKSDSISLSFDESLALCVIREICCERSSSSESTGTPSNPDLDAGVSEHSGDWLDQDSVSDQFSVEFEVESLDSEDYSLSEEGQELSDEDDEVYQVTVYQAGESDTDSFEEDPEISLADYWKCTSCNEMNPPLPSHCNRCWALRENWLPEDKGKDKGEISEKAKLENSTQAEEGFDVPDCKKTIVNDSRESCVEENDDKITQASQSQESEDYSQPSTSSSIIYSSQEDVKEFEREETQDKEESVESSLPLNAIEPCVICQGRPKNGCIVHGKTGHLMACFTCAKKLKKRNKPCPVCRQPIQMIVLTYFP

Compound: COc1cc(OC(C)C)ncc1-c1nc2c(n1C(C)C)[C@@]1(C(=O)Nc3cc(Cl)ccc31)N(c1cc(Cl)cnc1C)C2=O [Example S-137, (S)-6-chloro-5′-(5-chloro-2-methylpyridin-3-yl)-2′-(6-isopropoxy-4-methoxypyridin-3-yl)-3′-isopropyl-3′H-spiro[dihydroindole-3,4′-pyrrolo[3,4-d]imidazole]-2,6′(5′H)-dione]
- AUC(0-t) [1, 3]: 15555.08 ng·h/mL and 10168.14 ng·h/mL
- AUC(0-∞) [1, 3]: 15581.80 ng·h/mL and 10938.18 ng·h/mL
- CL [1, 3]: 2.14 mL/min/kg and 3.05 mL/min/kg
- Cmax [1, 3]: 5945.51 ng/mL and 5653.28 ng/mL
- MRT(0-t) [1, 3]: 2.84 h and 1.50 h
- MRT(0-∞) [1, 3]: 2.88 h and 1.97 h
- Vz [1, 3]: 0.52 L/kg and 0.41 L/kg
- t1/2 [1, 3]: 2.79 h and 1.57 h
- F* ([1]; ICR mice): 53.35%
- AUC(0-t) [1, 4]: 16097.34 ng·h/mL and 14779.57 ng·h/mL
- AUC(0-∞) [1, 4]: 17159.38 ng·h/mL and 15367.65 ng·h/mL
- Cmax [1, 4]: 5542.83 ng/mL and 6791.01 ng/mL
- MRT(0-t) [1, 4]: 2.31 h and 2.03 h
- MRT(0-∞) [1, 4]: 2.84 h and 2.35 h
- t1/2 [1, 4]: 1.98 h and 1.69 h
- AUC(0-inf) [1, 5]: 9740 ng·h/mL
- clearance [1, 5]: 3.42 mL/min/kg
- AUC(0-t) [1, 6]: 8960 ng·h/mL
- Cmax [1, 7]: 5260 ng/mL
- MRT last [1, 5]: 1.51 h
- MRT inf [1, 5]: 2.06 h
- Tmax [1, 8]: 0.08 h
- Vd [1, 5]: 0.5 L/kg
- half-life [1, 9]: 1.68 h
- AUC(0-inf) [1, 10]: 12100 ng·h/mL
- clearance [1, 10]: 2.87 mL/min/kg
- AUC(0-t) [1, 11]: 11600 ng·h/mL
- Cmax [1, 12]: 5620 ng/mL
- MRT last [1, 10]: 1.95 h
- MRT inf [1, 10]: 2.3 h
- Tmax [1, 13]: 0.083 h
- Vd [1, 10]: 0.48 L/kg
- half-life [1, 14]: 2.01 h
- AUC(0-inf) [1, 15]: 16200 ng·h/mL
- AUC(0-t) [1, 16]: 15400 ng·h/mL
- Cmax [1, 17]: 5880 ng/mL
- MRT last [1, 15]: 2.28 h
- MRT inf [1, 15]: 2.7 h
- Tmax ([1]; male, ICR, mouse, plasma, po, 5 mg/kg, ICR mice, PO 5 mg/kg, individual animals 401-403, read-out: Tmax): 0.5 h
- half-life [1, 18]: 1.85 h
- AUC(0-inf) [1, 19]: 16200 ng·h/mL
- AUC(0-t) [1, 20]: 15400 ng·h/mL
- Cmax [1, 21]: 6070 ng/mL
- MRT last [1, 19]: 2.21 h
- MRT inf [1, 19]: 2.63 h
- Tmax [1, 22]: 0.5 h
- half-life [1, 23]: 1.84 h
- AUC(0-t) [1, 24]: 15400 ng·h/mL
- half-life [1, 25]: 1.84 h
- IC50 [2]: 65.9 nM
- IC50 (MDM2): 1.65 nM

Compound: COc1cc(C(F)(F)F)ncc1-c1nc2c(n1C(C)C)[C@@]1(C(=O)Nc3cc(Cl)ccc31)N(c1cc(Cl)ccc1C)C2=O [Example S-138, (S)-6-chloro-5′-(5-chloro-2-methylphenyl)-3′-isopropyl-2′-(4-methoxy-6-(trifluoromethyl)pyridin-3-yl)-3′H-spiro[dihydroindole-3,4′-pyrrolo[3,4-d]imidazole]-2,6′(5′H)-dione]
- AUC(0-t) [1, 3]: 3427.99 ng·h/mL and 6387.52 ng·h/mL
- AUC(0-∞) [1, 3]: 5237.36 ng·h/mL and 6445.45 ng·h/mL
- CL [1, 3]: 6.36 mL/min/kg and 5.17 mL/min/kg
- Cmax [1, 3]: 2002.99 ng/mL and 1828.27 ng/mL
- MRT(0-t) [1, 3]: 4.04 h and 2.03 h and 4.19 h
- MRT(0-∞) [1, 3]: 5.54 h and 4.42 h
- Vz [1, 3]: 2.37 L/kg and 1.70 L/kg
- t1/2 [1, 3]: 4.29 h and 3.81 h
- F* ([1]; ICR mice): 58.12%
- AUC(0-t) [1, 4]: 7494.57 ng·h/mL and 8147.05 ng·h/mL
- AUC(0-∞) [1, 4]: 8818.35 ng·h/mL and 9514.89 ng·h/mL
- Cmax [1, 4]: 1475.55 ng/mL and 1466.48 ng/mL
- MRT(0-t) [1, 4]: 3.19 h and 3.27 h
- MRT(0-∞) [1, 4]: 4.51 h and 4.52 h
- Tmax [1, 4]: 4.00 h and 2.00 h and 1.00 h
- t1/2 [1, 4]: 2.74 h
- AUC(0-inf) [1, 5]: 6130 ng·h/mL
- clearance [1, 5]: 5.44 mL/min/kg
- AUC(0-t) [1, 6]: 6060 ng·h/mL
- Cmax [1, 7]: 2170 ng/mL
- MRT inf [1, 5]: 4.32 h
- Tmax [1, 8]: 0.08 h
- Vd [1, 5]: 1.9 L/kg
- half-life [1, 9]: 4.03 h
- AUC(0-inf) [1, 10]: 5940 ng·h/mL
- clearance [1, 10]: 5.66 mL/min/kg
- AUC(0-t) [1, 11]: 5290 ng·h/mL
- Cmax [1, 12]: 2000 ng/mL
- MRT last [1, 10]: 3.42 h
- MRT inf [1, 10]: 4.76 h
- Tmax [1, 13]: 0.083 h
- Vd [1, 10]: 1.99 L/kg
- half-life [1, 14]: 4.04 h
- AUC(0-inf) [1, 15]: 9150 ng·h/mL
- AUC(0-t) [1, 16]: 7430 ng·h/mL
- Cmax [1, 17]: 1240 ng/mL
- MRT last [1, 15]: 3.56 h
- MRT inf [1, 15]: 5.12 h
- half-life [1, 18]: 2.69 h
- AUC(0-inf) [1, 19]: 9160 ng·h/mL
- AUC(0-t) [1, 20]: 7690 ng·h/mL
- Cmax [1, 21]: 1390 ng/mL
- MRT last [1, 19]: 3.34 h
- MRT inf [1, 19]: 4.72 h
- Tmax [1, 22]: 2.33 h
- half-life [1, 23]: 2.72 h
- AUC(0-t) [1, 24]: 7690 ng·h/mL
- half-life [1, 25]: 2.72 h
- IC50 [2]: 75.7 nM
- IC50 (MDM2): 1.04 nM

Reference: US11339171B2, “MDM2 inhibitors” (Gan & Lee Pharmaceuticals, priority 2017, dated 2022)
